Reference: ChEMBL document CHEMBL5030562, “Synthesis and antiviral evaluation of cytisine derivatives against dengue virus types 1 and 2” (Bioorg Med Chem Lett, 2021)
Activity calls are given as the source filed them. No cut-off for these calls is given here.

Key:
A549 = assay: Cytotoxicity against human A549 cells assessed as reduction in cell viability by MTT assay; format: functional
dengue virus type 2 [1] = assay: Antiviral activity against DENV2 infected in African green monkey Vero E6 cells assessed as reduction in induced cytopathic effect at 10 uM after 96 hrs by immunofluorescent staining based inverted microscopic analysis; format: functional, organism-based
dengue virus type 2 [2] = assay: Antiviral activity against DENV2 infected in African green monkey Vero E6 cells assessed as inhibition of virus induced cytopathic effect at 10 uM measured after 96 hrs by immunofluorescent staining based inverted microscopic analysis relative to control; format: functional; conditions: Vero C1008
[3] = Cytotoxicity against African green monkey Vero E6 cells assessed as reduction in cell viability by MTT assay; format: cell-based, Vero C1008; conditions: chlorocebus sabaeus
Hepatitis B virus = assay: Antiviral activity against Hepatitis B virus; format: functional, organism-based
Human respirovirus 3 = assay: Antiviral activity against Parainfluenza virus type 3; format: functional, organism-based
dengue virus type 2 [4] = assay: Antiviral activity against DENV2 infected in human A549 cells assessed as inhibition of virus induced cytopathic effect measured after 96 hrs by immunofluorescent staining based inverted microscopic analysis; format: functional, organism-based; conditions: A549, 96 h
dengue virus type 2 [5] = assay: Antiviral activity against Dengue virus 2 infected in African green monkey Vero E6 cells assessed as inhibition of viral replication at post entry stage measured after 96 hrs by DAPI staining based fluorescence microscopic analysis; format: functional, organism-based; conditions: Vero C1008, 96 h
dengue virus type 1 [6] = assay: Antiviral activity against DENV1 infected in African green monkey Vero E6 cells assessed as reduction in induced cytopathic effect at 10 uM after 96 hrs by immunofluorescent staining based inverted microscopic analysis; format: functional, organism-based
dengue virus type 1 [7] = assay: Antiviral activity against DENV1 infected in African green monkey Vero E6 cells assessed as inhibition of virus induced cytopathic effect measured after 96 hrs by immunofluorescent staining based inverted microscopic analysis; format: functional, organism-based; conditions: Vero C1008, 96 h
dengue virus type 2 [8] = assay: Antiviral activity against Dengue virus 2 infected in African green monkey Vero E6 cells assessed as inhibition of viral replication at attachment stage measured after 96 hrs by DAPI staining based fluorescence microscopic analysis; format: functional, organism-based; conditions: Vero C1008, 96 h
dengue virus type 1 [9] = assay: Antiviral activity against DENV1 infected in African green monkey Vero E6 cell assessed as inhibition of virus induced cytopathic effect at 10 uM measured after 96 hrs by immunofluorescent staining based inverted microscopic analysis relative to control; format: functional; conditions: Vero C1008
dengue virus type 1 [10] = assay: Selectivity index, ratio of CC50 for cytotoxicity in African green monkey Vero E6 cells to IC50 for Antiviral activity against DENV1 infected in African green monkey Vero E6 cells; format: functional, Vero C1008
[11] = Selectivity index, ratio of CC50 for cytotoxicity in human A549 cells to IC50 for Antiviral activity against DENV2 infected in African green monkey Vero E6 cells; format: toxicity, cell-based
[12] = Selectivity index, ratio of CC50 for cytotoxicity in African green monkey Vero E6 cells to IC50 for Antiviral activity against DENV2 infected in African green monkey Vero E6 cells; format: toxicity, cell-based, Vero C1008; conditions: read-out: Ratio CC50/IC50
Influenza A virus = assay: Antiviral activity against Influenza A virus; format: functional, organism-based
dengue virus type 2 [13] = assay: Antiviral activity against DENV2 infected in African green monkey Vero E6 cells assessed as inhibition of virus induced cytopathic effect measured after 96 hrs by immunofluorescent staining based inverted microscopic analysis; format: functional, organism-based; conditions: Vero C1008, 96 h
dengue virus type 2 [14] = assay: Antiviral activity against Dengue virus 2 infected in African green monkey Vero E6 cells assessed as inhibition of viral replication at entry stage measured after 96 hrs by DAPI staining based fluorescence microscopic analysis; format: functional, organism-based; conditions: Vero C1008, 96 h

| SMILES | CC50 (A549) [nM] | Activity (dengue virus type 2 [1]) | inhibition at 10 µM (dengue virus type 2 [2]) [%] | CC50 [3] [nM] | IC50 (Hepatitis B virus) [nM] | IC50 (Human respirovirus 3) [nM] | IC50 (dengue virus type 2 [4]) [nM] | IC50 (dengue virus type 2 [5]) [nM] | Activity (dengue virus type 1 [6]) | IC50 (dengue virus type 1 [7]) [nM] | IC50 (dengue virus type 2 [8]) [nM] | inhibition at 10 µM (dengue virus type 1 [9]) [%] | Ratio CC50/IC50 (dengue virus type 1 [10]) | selectivity ratio [11] | selectivity ratio [12] | IC50 (Influenza A virus) [nM] | IC50 (dengue virus type 2 [13]) [nM] | IC50 (dengue virus type 2 [14]) [nM] |
| --- | --- | --- | --- | --- | --- | --- | --- | --- | --- | --- | --- | --- | --- | --- | --- | --- | --- | --- |
| CCOC(=O)CNC(=S)Nc1ccc2n(c1=O)C[C@@H]1C[C@H]2CN(C)C1 | > 50000 | Active | 60.9 | > 50000 | – | – | – | – | – | – | – | – | – | – | – | – | – | – |
| C=CCNC(=S)N1C[C@H]2C[C@@H](C1)c1ccc([N+](=O)[O-])c(=O)n1C2 | > 50000 | Active | 48.9 | > 50000 | – | – | – | – | – | – | – | – | – | – | – | – | – | – |
| CN1C[C@H]2C[C@@H](C1)c1ccc(NC/C=C/c3ccccc3)c(=O)n1C2 | > 50000 | Active | 3.2 | > 50000 | – | – | – | – | – | – | – | – | – | – | – | – | – | – |
| CN1C[C@H]2C[C@@H](C1)c1ccc(NCc3cn(C)c(=O)n(C)c3=O)c(=O)n1C2 (single isomer, unassigned) | > 50000 | Active | 79.2 | > 50000 | > 3000 | > 3000 | 660 | 237 | Active | 1380 | 9300 | 73.9 | >36.2 | > 75.8 | > 109 | > 3000 | < 100 | 1840 |
| C=CCNC(=S)N1C[C@H]2C[C@@H](C1)c1cccc(=O)n1C2 | > 50000 | Active | 86.4 | > 50000 | > 3000 | > 3000 | < 100 | 7510 | Active | 140 | 315 | 81.2 | >357.1 | > 500 | > 500 | > 3000 | < 100 | < 100 |
| C=CCN1C[C@H]2C[C@@H](C1)c1ccc(NCc3cn(C)c(=O)n(C)c3=O)c(=O)n1C2 | > 50000 | Active | 43.3 | > 50000 | – | – | – | – | – | – | – | – | – | – | – | – | – | – |
| Cn1cc(CNc2ccc3n(c2=O)C[C@@H]2C[C@H]3CN(C(=O)Nc3ccccc3)C2)c(=O)n(C)c1=O | > 50000 | Active | 74 | > 50000 | > 3000 | > 3000 | 470 | < 100 | Active | 490 | 6450 | 57.7 | >102 | > 106 | > 500 | > 3000 | < 100 | 844 |
| Cn1cc(CNc2ccc3n(c2=O)C[C@@H]2C[C@H]3CN(Cc3ccccc3)C2)c(=O)n(C)c1=O (single isomer, unassigned) | > 50000 | Active | 58.8 | > 50000 | – | – | – | – | – | – | – | – | – | – | – | – | – | – |
| O=c1cccc2n1C[C@@H]1C[C@H]2CN(C(=S)Nc2ccccc2)C1 | > 50000 | Active | 59.4 | > 50000 | – | – | – | – | – | – | – | – | – | – | – | – | – | – |
| Cn1cc(CNc2ccc3n(c2=O)C[C@@H]2C[C@H]3CN3CCCCC23)c(=O)n(C)c1=O (stereo partly specified) | > 50000 | Active | 53.3 | > 50000 | – | – | – | – | – | – | – | – | – | – | – | – | – | – |
| COC(=O)CN1C[C@H]2C[C@@H](C1)c1ccc(NCc3cn(C)c(=O)n(C)c3=O)c(=O)n1C2 | > 50000 | Active | 63.9 | > 50000 | – | – | – | – | – | – | – | – | – | – | – | – | – | – |
| CCOC(=O)CNC(=O)Nc1ccc2n(c1=O)C[C@@H]1C[C@H]2CN(C)C1 (single isomer, unassigned) | > 50000 | Active | 40.3 | > 50000 | – | – | – | – | – | – | – | – | – | – | – | – | – | – |
| CC(C)NC(=O)Nc1ccc2n(c1=O)C[C@@H]1C[C@H]2CN(C)C1 (single isomer, unassigned) | > 50000 | Active | 19.7 | > 50000 | – | – | – | – | – | – | – | – | – | – | – | – | – | – |
| CN1C[C@H]2C[C@@H](C1)c1ccc(NCc3ccccc3O)c(=O)n1C2 | > 50000 | Active | 39 | > 50000 | – | – | – | – | – | – | – | – | – | – | – | – | – | – |
| O=c1ccc(Cl)c2n1C[C@@H]1C[C@H]2CN(C(=S)Nc2ccccc2)C1 | > 50000 | Active | 11.2 | > 50000 | – | – | – | – | – | – | – | – | – | – | – | – | – | – |
| CC(C)NC(=S)Nc1ccc2n(c1=O)C[C@@H]1CC2CN(C)C1 (single isomer, unassigned) | > 50000 | Active | 61.4 | > 50000 | – | – | – | – | – | – | – | – | – | – | – | – | – | – |
| CN1C[C@H]2C[C@@H](C1)c1ccc([N+](=O)[O-])c(=O)n1C2 | > 50000 | Active | 76.7 | > 50000 | > 3000 | > 3000 | 770 | 1370 | Active | 2400 | 837 | 61.2 | >20.8 | > 64.9 | > 500 | > 3000 | – | 1130 |
| CN1C[C@H]2C[C@@H](C1)c1ccc(NCc3ccc(O)cc3)c(=O)n1C2 | > 50000 | Active | 70.6 | > 50000 | > 3000 | > 3000 | 780 | < 100 | Active | 970 | > 10000 | 64.8 | >51.5 | > 64.1 | > 21.7 | > 3000 | 2300 | 471 |
